Drawing on article PMC7536268, “Increased Antimicrobial Activity of Colistin in Combination With Gamithromycin Against Pasteurella multocida in a Neutropenic Murine Lung Infection Model” (Frontiers in Microbiology, 2020), this text covers MIC for six molecules.

Where a name gives a salt, the structure may show the parent alone. Read-outs that look alike come from different tables or passages of the source. Some results are limits rather than exact numbers.

Assay [1] relates to Pasteurella multocida strains. Briefly: MIC by broth microdilution (CLSI). It counts as cell-based. Particulars: drug alone, against three strains (D18, T5, and WJ11). The protocol: The susceptibility of the selected P. multocida isolates and the quality control isolate (ATCC 25922) to colistin, gamithromycin, cefquinome, enrofloxacin, tilmicosin, tylosin tartrate, and florfenicol alone was determined using the microdilution method in broth (conducted in triplicate) according to the guiding principles of the CLSI. Based on the action mechanism of each drug, the antimicrobial activity of colistin or cefquinome (drug A) in combination with gamithromycin, enrofloxacin, tilmicosin, tylosin tartrate, or florfenicol (drug B) was determined with the checkerboard method, according to the minimal inhibitory concentration (MIC) of each drug. Briefly, 50 μL of MH II broth was added to each well, and 50 μL of the indicated concentration of colistin or cefquinome was added into the first well of each line. This was followed by multiproportion dilution. Next, 50-μL samples of different concentrations of gamithromycin or the other drugs mentioned above were added to the dilution medium, and a 100 μL inoculum with a cell density of ∼1 × 10^6 colony-forming units (CFU)/mL was added to each well. The plates were then incubated at 37°C for 24 h. According to the EUCAST definitive document E.Def 1.2 ([Mccullough, 2010]), the fractional inhibitory concentration (FIC) index for combined administrations was defined as the sum of the FIC of drug A and the FIC of drug B, where FIC is the MIC of the drug combined with other drugs, divided by the MIC of the drug alone.

Another assay concerns P. multocida. More on the design: method as in Benoit et al., 2011. Particulars: P. multocida with erm(E); ref Benoit et al., 2011; cited from earlier work. From the text:
Bovine respiratory disease (BRD) associated with Mannheimia haemolytica, P. multocida, and Histophilus somni is one of the most economically important diseases that occur in feedlots, and the global losses are estimated at over $3 billion per year ([Watts and Sweeney, 2010]).

Where [2] appears, read: Pasteurella multocida, read-out: MIC.

On to `CO/N=C(\C(=O)N[C@@H]1C(=O)N2C(C(=O)[O-])=C(C[n+]3cccc4c3CCCC4)CS[C@H]12)c1csc(N)n1` [cefquinome, Cefquinome], for which, in assay [1], the MIC – broadly, the lowest concentration that inhibits growth of the organism – is recorded as “more than 64 mg/L”. With `CCN1CCN(c2cc3c(cc2F)c(=O)c(C(=O)O)cn3C2CC2)CC1` [enrofloxacin, Enrofloxacin], the minimum inhibitory concentration (MIC) in assay [1] (setting [2]) is more than 64 µg/mL. Consider `CS(=O)(=O)c1ccc([C@@H](O)[C@@H](CF)NC(=O)C(Cl)Cl)cc1` [florfenicol], for which the MIC in assay [1] (setting [2]) fell in the range of 2 to 4 µg/mL. In the case of `CC[C@H]1OC(=O)C[C@@H](O)[C@H](C)[C@@H](O[C@@H]2O[C@H](C)[C@@H](O)[C@H](N(C)C)[C@H]2O)[C@@H](CCN2C[C@H](C)C[C@H](C)C2)C[C@@H](C)C(=O)/C=C/C(C)=C/[C@@H]1CO[C@@H]1O[C@H](C)[C@@H](O)[C@@H](OC)[C@H]1OC` [tilmicosin], the values for the MIC (in assay [1] (setting [2]); with P. multocida) were 2 to 4 µg/mL and not below 512 µg/mL, respectively. On to `CCCNC[C@]1(O)[C@H](C)O[C@@H](O[C@H]2[C@H](C)[C@@H](O[C@@H]3O[C@H](C)C[C@H](N(C)C)[C@H]3O)[C@](C)(O)C[C@@H](C)CN[C@H](C)[C@@H](O)[C@](C)(O)[C@@H](CC)OC(=O)[C@@H]2C)C[C@@]1(C)OC` [tulathromycin], for which the MIC with P. multocida was not below 512 µg/mL. Take `CC[C@H]1OC(=O)C[C@@H](O)[C@H](C)[C@@H](O[C@@H]2O[C@H](C)[C@@H](O[C@H]3C[C@@](C)(O)[C@@H](O)[C@H](C)O3)[C@H](N(C)C)[C@H]2O)[C@@H](CC=O)C[C@@H](C)C(=O)/C=C/C(C)=C/[C@@H]1CO[C@@H]1O[C@H](C)[C@@H](O)[C@@H](OC)[C@H]1OC` [tylosin, tylosin tartrate]: the figures for the MIC (in assay [1] (setting [2]); in the assay with P. multocida) were more than 64 µg/mL and not below 512 µg/mL, respectively.
